# Literature values as cited in US7273889B2, “NMDA receptor antagonist formulation with reduced neurotoxicity” (Innovative Drug Delivery Systems, Inc., priority 2002, dated 2007).
# Structures can show the parent of a compound that is named as a salt.
# Legend:
# [1] = at a pH up to 10
# [2] = tested on: patients; settings: use as an anesthetic agent
# [3] = tested on: spinal cord of the animals; settings: multiple dose, intrathecally administered
molecule,measurement,setting,value
benzalkonium chloride,stability,[1],stable at room temperature
CNC1(c2ccccc2Cl)CCCCC1=O (stereo not drawn) [ketamine hydrochloride],occurrence of postoperative confusional states (emergence reactions),[2],approximately 12% of patients
"CNC1(c2ccccc2Cl)CCCCC1=O (stereo not drawn) [preservative-free ketamine, ketamine]",neurotoxic effect,[3],without neurotoxic effect
